The source of these data is patent US20240360157A1, “TYK2 INHIBITORS” (BIOGEN MA INC., priority 2021, published 2024).

Each structure is given as a SMILES string.

What all share (assay type): biochemical
Assay [1] addresses human TYK2 catalytic kinase (JH1) domain (Homo sapiens (Human), UniProt P29597). Nature of the assay: ADP-Glo Kinase Assay, recombinant TYK2 catalytic kinase (JH1) domain. The settings on record: recombinant JH1 domain 2 nM, 10 μM ATP, JAK3-974 peptide, mean, read-out: TYK2 biochem IC50 (nM) Mean. Summed up:
(§1)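 Reactions ran 100 min with 50 μM substrate peptide (JAK3-342 for JAK1 at 4 nM enzyme; JAK3-974 for JAK2 0.2 nM, JAK3 0.3 nM, TYK2 2 nM), and ADP formed was read by ADP-Glo luminescence. Eleven-point 3-fold series from 10 or 1 μM; IC50 fitted by 4-parameter logistic model.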

Assay [2] deals with human JAK3 catalytic kinase (JH1) domain (Homo sapiens (Human), UniProt P52333). Nature of the assay: ADP-Glo Kinase Assay, recombinant JAK3 catalytic kinase (JH1) domain. As to conditions: recombinant JH1 domain 0.3 nM, 4 μM ATP, JAK3-974 peptide, mean, read-out: JAK3 biochem IC50 (nM) Mean. Summed up: as §1
Background: ADP-Glo turns the ADP formed in a reaction into a luminescent signal.

In assay [3] the target is human JAK2 catalytic kinase (JH1) domain (Homo sapiens (Human), UniProt O60674). Nature of the assay: ADP-Glo Kinase Assay, recombinant JAK2 catalytic kinase (JH1) domain. The settings on record: recombinant JH1 domain 0.2 nM, 15 μM ATP, JAK3-974 peptide, mean, read-out: JAK2 biochem IC50 (nM) Mean. In a few lines: as §1
Assay [4] deals with human JAK1 catalytic kinase (JH1) domain (Homo sapiens (Human), UniProt P23458). Nature of the assay: ADP-Glo Kinase Assay, recombinant JAK1 catalytic kinase (JH1) domain. The settings on record: recombinant JH1 domain 4 nM, 35 μM ATP, JAK3-342 peptide, mean, read-out: JAK1 biochem IC50 (nM) Mean. Summed up: as §1
Chain of human JAK1 catalytic kinase (JH1) domain (P23458 875-1153): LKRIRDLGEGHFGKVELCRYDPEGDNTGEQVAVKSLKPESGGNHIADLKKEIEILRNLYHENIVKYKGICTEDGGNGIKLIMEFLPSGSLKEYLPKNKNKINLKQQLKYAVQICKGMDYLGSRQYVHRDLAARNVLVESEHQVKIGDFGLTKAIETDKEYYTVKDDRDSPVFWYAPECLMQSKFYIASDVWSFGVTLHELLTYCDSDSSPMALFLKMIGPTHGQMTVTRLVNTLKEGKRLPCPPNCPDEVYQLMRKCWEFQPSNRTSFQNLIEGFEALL

Chain of human TYK2 catalytic kinase (JH1) domain (P29597 897-1176): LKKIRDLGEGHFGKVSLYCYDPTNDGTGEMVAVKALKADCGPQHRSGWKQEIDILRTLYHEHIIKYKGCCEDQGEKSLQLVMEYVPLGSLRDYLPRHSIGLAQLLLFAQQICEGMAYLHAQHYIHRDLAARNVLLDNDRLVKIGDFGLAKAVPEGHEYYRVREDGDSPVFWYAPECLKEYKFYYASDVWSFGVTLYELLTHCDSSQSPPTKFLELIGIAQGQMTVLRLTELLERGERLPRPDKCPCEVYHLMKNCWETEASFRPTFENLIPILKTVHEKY
Chain of human JAK2 catalytic kinase (JH1) domain (O60674 849-1124): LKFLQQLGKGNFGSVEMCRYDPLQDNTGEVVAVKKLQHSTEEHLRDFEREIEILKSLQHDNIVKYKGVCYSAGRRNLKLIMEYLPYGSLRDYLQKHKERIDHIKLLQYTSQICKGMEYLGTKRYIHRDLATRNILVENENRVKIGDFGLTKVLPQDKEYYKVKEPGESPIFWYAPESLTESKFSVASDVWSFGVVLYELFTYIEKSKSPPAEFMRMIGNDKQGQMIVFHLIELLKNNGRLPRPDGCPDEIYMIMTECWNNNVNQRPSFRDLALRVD
Chain of human JAK3 catalytic kinase (JH1) domain (P52333 822-1111): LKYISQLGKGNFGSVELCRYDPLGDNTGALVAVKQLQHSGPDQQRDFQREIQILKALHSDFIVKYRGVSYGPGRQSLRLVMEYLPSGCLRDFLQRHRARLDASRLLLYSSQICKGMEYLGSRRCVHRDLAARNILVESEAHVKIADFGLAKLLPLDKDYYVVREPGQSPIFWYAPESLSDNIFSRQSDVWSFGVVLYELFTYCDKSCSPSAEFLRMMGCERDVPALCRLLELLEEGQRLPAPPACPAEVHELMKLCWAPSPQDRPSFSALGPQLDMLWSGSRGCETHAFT

For orientation: IC50 means the point on the concentration scale where inhibition reaches its midpoint. For `O=C(N1C2CCC1CN(c1ncnn3cc(-c4cnn(C(F)F)c4)cc13)C2)C(F)(F)F` [Example 86, 1-(3-(6-(1-(difluoromethyl)-1H-pyrazol-4-yl)pyrrolo[2,1-f][1,2,4]triazin-4-yl)-3,8-diazabicyclo[3.2.1]octan-8-yl)-2,2,2-trifluoroethan-1-one], the IC50 in assay [1] worked out at 334 nM; in assay [2] it was 5090 nM; in assay [3], 6080 nM; in assay [4], 1030 nM.

As to `Cn1cc(-c2cc3c(N4CC5CCC(C4)N5C(=O)C(F)(F)F)ncnn3c2)cn1` [Example 87, 2,2,2-trifluoro-1-(3-(6-(1-methyl-1H-pyrazol-4-yl)pyrrolo[2,1-f][1,2,4]triazin-4-yl)-3,8-diazabicyclo[3.2.1]octan-8-yl)ethan-1-one], the IC50 amounted to 266 nM in assay [1], 2550 nM in assay [2], 4870 nM in assay [3] and 1200 nM in assay [4].

On to `COc1cc(-c2cc3c(N4CC5CCC(C4)N5C(=O)[C@@H]4C[C@H]4F)ccnn3c2)ccn1` [Example 88, ((1S,2R)-2-fluorocyclopropyl)(3-(6-(2-methoxypyridin-4-yl)pyrrolo[1,2-b]pyridazin-4-yl)-3,8-diazabicyclo[3.2.1]octan-8-yl)methanone], for which the IC50 in assay [1] is 1.9 nM; in assay [2], 604 nM; in assay [3], 46 nM; in assay [4], 23 nM.

Consider `COc1cc(-c2cc3c(N4CC5CCC(C4)N5C(=O)[C@@H]4C[C@H]4F)ncnn3c2)ccn1` [Example 89, ((1S,2R)-2-fluorocyclopropyl)(3-(6-(2-methoxypyridin-4-yl)pyrrolo[2,1-f][1,2,4]triazin-4-yl)-3,8-diazabicyclo[3.2.1]octan-8-yl)methanone], for which the IC50 is 28.2 nM in assay [1], 4240 nM in assay [2], 856 nM in assay [3] and 236 nM in assay [4].

On to `O=C([C@@H]1C[C@H]1F)N1C2CCC1CN(c1ncnn3cc(-c4ccnnc4)cc13)C2` [Example 90, ((1S,2R)-2-fluorocyclopropyl)(3-(6-(pyridazin-4-yl)pyrrolo[2,1-f][1,2,4]triazin-4-yl)-3,8-diazabicyclo[3.2.1]octan-8-yl)methanone], for which the IC50 is 124 nM in assay [1], 10000 nM in assay [2], 3060 nM in assay [3] and 1120 nM in assay [4].

In the case of `Cc1cc(-c2cc3c(N4CC5CCC(C4)N5C(=O)[C@@H]4C[C@H]4F)ncnn3c2)ccn1` [Example 91, ((1S,2R)-2-fluorocyclopropyl)(3-(6-(2-methylpyridin-4-yl)pyrrolo[2,1-f][1,2,4]triazin-4-yl)-3,8-diazabicyclo[3.2.1]octan-8-yl)methanone], the IC50 was 21.8 nM in assay [1], 4500 nM in assay [2], 624 nM in assay [3] and 316 nM in assay [4].

With `Cc1ccc(-c2cc3c(N4CC5CCC(C4)N5C(=O)[C@@H]4C[C@H]4F)ncnn3c2)cn1` [Example 92, ((1S,2R)-2-fluorocyclopropyl)(3-(6-(6-methylpyridin-3-yl)pyrrolo[2,1-f][1,2,4]triazin-4-yl)-3,8-diazabicyclo[3.2.1]octan-8-yl)methanone], the IC50 in assay [1] was 42.2 nM; in assay [2], 4820 nM; in assay [3] it was 1160 nM; in assay [4], 744 nM.

As to `O=C([C@@H]1C[C@H]1F)N1C2CCC1CN(c1ncnn3cc(-c4ccnc(C(F)F)c4)cc13)C2` [Example 93, (3-(6-(2-(difluoromethyl)pyridin-4-yl)pyrrolo[2,1-f][1,2,4]triazin-4-yl)-3,8-diazabicyclo[3.2.1]octan-8-yl)((1S,2R)-2-fluorocyclopropyl)methanone], the IC50 in assay [1] was found to be 29.2 nM; in assay [2], 3300 nM; in assay [3], 591 nM; in assay [4], 386 nM.

On to `CNc1cc(-c2cc3c(N4CC5CCC(C4)N5C(=O)[C@@H]4C[C@H]4F)ncnn3c2)ccn1` [Example 94, ((1S,2R)-2-fluorocyclopropyl)(3-(6-(2-(methylamino)pyridin-4-yl)pyrrolo[2,1-f][1,2,4]triazin-4-yl)-3,8-diazabicyclo[3.2.1]octan-8-yl)methanone], for which the IC50 in assay [1] was 18.6 nM; in assay [2] it was 2940 nM; in assay [3], 590 nM; in assay [4], 230 nM.

For `N#Cc1cc(-c2cc3c(N4CC5CCC(C4)N5C(=O)[C@@H]4C[C@H]4F)ncnn3c2)ccn1` [Example 95, 4-(4-(8-((1S,2R)-2-fluorocyclopropane-1-carbonyl)-3,8-diazabicyclo[3.2.1]octan-3-yl)pyrrolo[2,1-f][1,2,4]triazin-6-yl)picolinonitrile], the IC50 in assay [1] is 45.5 nM; in assay [2], 7940 nM; in assay [3], 942 nM; in assay [4], 741 nM.

Regarding `Cn1cc(-c2cc3c(N4CC5CCC(C4)N5C(=O)[C@@H]4C[C@H]4F)ncnn3c2)c(F)n1` [Example 96, (3-(6-(3-fluoro-1-methyl-1H-pyrazol-4-yl)pyrrolo[2,1-f][1,2,4]triazin-4-yl)-3,8-diazabicyclo[3.2.1]octan-8-yl)((1S,2R)-2-fluorocyclopropyl)methanone], the IC50 in assay [1] is 13.7 nM; in assay [2], 3270 nM; in assay [3], 422 nM; in assay [4] it was 718 nM.

For `Cn1ncc(-c2cc3c(N4CC5CCC(C4)N5C(=O)[C@@H]4C[C@H]4F)ncnn3c2)c1F` [Example 97, (3-(6-(5-fluoro-1-methyl-1H-pyrazol-4-yl)pyrrolo[2,1-f][1,2,4]triazin-4-yl)-3,8-diazabicyclo[3.2.1]octan-8-yl)((1S,2R)-2-fluorocyclopropyl)methanone], the concentration for half-maximal inhibition (IC50) was found to be 76.8 nM in assay [1], 4040 nM in assay [2], 1380 nM in assay [3] and 1320 nM in assay [4].

For the compound `COc1nn(C)cc1-c1cc2c(N3CC4CCC(C3)N4C(=O)[C@@H]3C[C@H]3F)ncnn2c1` [Example 98, ((1S,2R)-2-fluorocyclopropyl)(3-(6-(3-methoxy-1-methyl-1H-pyrazol-4-yl)pyrrolo[2,1-f][1,2,4]triazin-4-yl)-3,8-diazabicyclo[3.2.1]octan-8-yl)methanone], the IC50 was determined as 9.8 nM in assay [1], 1640 nM in assay [2], 216 nM in assay [3] and 672 nM in assay [4].

As to `CNc1cc(-c2cc3c(N4CC5CCC(C4)N5C(=O)[C@@H]4C[C@H]4F)ccnn3c2)ccn1` [Example 99, ((1S,2R)-2-fluorocyclopropyl)(3-(6-(2-(methylamino)pyridin-4-yl)pyrrolo[1,2-b]pyridazin-4-yl)-3,8-diazabicyclo[3.2.1]octan-8-yl)methanone], the IC50 in assay [1] amounted to 0.7 nM; in assay [2], 211 nM; in assay [3], 18 nM; in assay [4], 10 nM.

For `Cc1cc(-c2cc3c(N4CC5CCC(C4)N5C(=O)[C@@H]4C[C@H]4F)ccnn3c2)ccn1` [Example 100, ((1S,2R)-2-fluorocyclopropyl)(3-(6-(2-methylpyridin-4-yl)pyrrolo[1,2-b]pyridazin-4-yl)-3,8-diazabicyclo[3.2.1]octan-8-yl)methanone], the IC50 in assay [1] amounted to 2.5 nM; in assay [2], 756 nM; in assay [3] it was 43 nM; in assay [4], 26 nM.
